From ChEMBL document CHEMBL1201862, “PubChem BioAssay data set” (2004)
Calls of active or inactive are those of the source.

Key:
[1] = target: T1, RNA-binding protein pos-1 (Caenorhabditis elegans, UniProt G5EF15); test: inhibitors of POS-1/mex-3 RNA binding, dose response, biochemical, fluorescence polarization (AID 1964);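 also: purified POS-1 fused to maltose binding protein made in E. coli; potency of compounds blocking POS-1 binding to fluorescent RNA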
T1 sequence (G5EF15 whole entry): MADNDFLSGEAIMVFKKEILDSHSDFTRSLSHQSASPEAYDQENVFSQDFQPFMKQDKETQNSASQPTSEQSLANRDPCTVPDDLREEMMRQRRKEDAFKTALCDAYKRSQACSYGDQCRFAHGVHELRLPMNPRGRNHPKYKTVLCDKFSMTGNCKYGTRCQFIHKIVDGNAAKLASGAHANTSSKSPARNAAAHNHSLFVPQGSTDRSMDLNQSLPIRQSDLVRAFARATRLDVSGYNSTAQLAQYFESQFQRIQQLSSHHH

[2] = target: T2, Polyadenylate-binding protein 1 (Homo sapiens, UniProt P11940); test: PABP1 MLLE–PAM2 binding inhibitor potency, dose response, biochemical, fluorescence polarization, FITC-PAM2 peptide (AID 602259); type: functional; settings: read-out: IC50_Mean
[3] = target: T3, Alkaline phosphatase, tissue-nonspecific isozyme (Homo sapiens, UniProt P05186); test: TNAP enzyme inhibition by screening hits, dose response, selectivity assay for mouse IAP inhibitor project, biochemical, human TNAP, uHTS hits (AID 488906); type: functional
T3 sequence (P05186 whole entry): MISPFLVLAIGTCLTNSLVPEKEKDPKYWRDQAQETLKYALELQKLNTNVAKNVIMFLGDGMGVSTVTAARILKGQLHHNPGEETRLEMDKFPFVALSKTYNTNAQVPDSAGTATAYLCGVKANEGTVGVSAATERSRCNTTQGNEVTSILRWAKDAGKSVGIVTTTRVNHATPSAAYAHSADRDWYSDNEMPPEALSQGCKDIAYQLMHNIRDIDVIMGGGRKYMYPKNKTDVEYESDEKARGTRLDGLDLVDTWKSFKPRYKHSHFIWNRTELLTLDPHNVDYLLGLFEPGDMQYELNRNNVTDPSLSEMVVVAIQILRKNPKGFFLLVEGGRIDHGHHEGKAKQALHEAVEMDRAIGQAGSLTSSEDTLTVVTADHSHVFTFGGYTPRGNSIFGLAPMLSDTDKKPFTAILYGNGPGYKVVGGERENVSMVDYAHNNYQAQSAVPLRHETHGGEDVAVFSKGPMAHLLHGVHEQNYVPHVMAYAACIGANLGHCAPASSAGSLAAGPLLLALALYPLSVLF

[4] = target: Procathepsin L (Homo sapiens, UniProt P07711); test: cathepsin L inhibitors, dose response, counter-screen for M1/M17 aminopeptidase inhibitor project, biochemical, QFRET, 1536-well (AID 2214)
[5] = target: T4, Zinc finger protein mex-5 (Caenorhabditis elegans, UniProt Q9XUB2); test: MEX-5/TCR-2 RNA interaction inhibitors, dose response, biochemical, C. elegans, fluorescence polarization (AID 1960)
T4 sequence (Q9XUB2 whole entry): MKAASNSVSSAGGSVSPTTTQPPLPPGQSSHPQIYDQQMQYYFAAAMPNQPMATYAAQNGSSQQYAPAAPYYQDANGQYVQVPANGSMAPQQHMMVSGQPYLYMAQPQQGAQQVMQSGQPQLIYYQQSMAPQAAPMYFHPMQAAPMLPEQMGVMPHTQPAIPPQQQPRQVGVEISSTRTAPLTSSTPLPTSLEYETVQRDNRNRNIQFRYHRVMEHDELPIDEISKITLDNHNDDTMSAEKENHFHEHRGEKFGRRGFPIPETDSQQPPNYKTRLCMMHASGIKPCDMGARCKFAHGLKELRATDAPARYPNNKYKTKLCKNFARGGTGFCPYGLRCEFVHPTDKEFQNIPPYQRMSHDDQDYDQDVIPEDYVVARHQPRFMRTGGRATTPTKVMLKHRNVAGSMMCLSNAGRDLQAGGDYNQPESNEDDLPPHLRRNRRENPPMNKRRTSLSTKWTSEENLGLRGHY

[6] = target: Intestinal-type alkaline phosphatase (Homo sapiens, UniProt P09923); test: inhibition of human intestinal alkaline phosphatase – biochemical, dose response (AID 488876); type: functional
[7] = target: Aspartyl aminopeptidase (Plasmodium falciparum 3D7, UniProt Q8I2J3); test: Counterscreen for inhibitors of M1 and M17 aminopeptidases: QFRET-based biochemical high throughput dose response assay for inhibitors of the Plasmodium falciparum M18 Aspartyl Aminopeptidase (PFM18AAP). [Related PubChem assays: 1619 (Screening assay (M17LAP inhibitors).), 1445 (Screening assay (M1AAP inhibitors).)]
[8] = target: T2, Polyadenylate-binding protein 1; test: PABP1 MLLE–PAM2 interaction inhibitors, dose response, miRNA deadenylation inhibitor project, biochemical, fluorescence polarization, Cy5-PAM2 peptide, secondary (AID 602260); type: functional; settings: read-out: IC50_Mean
[9] = target: Intestinal-type alkaline phosphatase (Mus musculus, UniProt P24822); test: PubChem AID 488785; type: functional
[10] = target: T5, Aminopeptidase N (Plasmodium falciparum FcB1/Columbia, UniProt O96935); test: P. falciparum M1AAP inhibitors, biochemical, fluorogenic H-Leu-NHMec substrate, 1536-well (AID 1445); design: species or system Plasmodium falciparum 3D7, 3D7
T5 sequence (O96935 whole entry): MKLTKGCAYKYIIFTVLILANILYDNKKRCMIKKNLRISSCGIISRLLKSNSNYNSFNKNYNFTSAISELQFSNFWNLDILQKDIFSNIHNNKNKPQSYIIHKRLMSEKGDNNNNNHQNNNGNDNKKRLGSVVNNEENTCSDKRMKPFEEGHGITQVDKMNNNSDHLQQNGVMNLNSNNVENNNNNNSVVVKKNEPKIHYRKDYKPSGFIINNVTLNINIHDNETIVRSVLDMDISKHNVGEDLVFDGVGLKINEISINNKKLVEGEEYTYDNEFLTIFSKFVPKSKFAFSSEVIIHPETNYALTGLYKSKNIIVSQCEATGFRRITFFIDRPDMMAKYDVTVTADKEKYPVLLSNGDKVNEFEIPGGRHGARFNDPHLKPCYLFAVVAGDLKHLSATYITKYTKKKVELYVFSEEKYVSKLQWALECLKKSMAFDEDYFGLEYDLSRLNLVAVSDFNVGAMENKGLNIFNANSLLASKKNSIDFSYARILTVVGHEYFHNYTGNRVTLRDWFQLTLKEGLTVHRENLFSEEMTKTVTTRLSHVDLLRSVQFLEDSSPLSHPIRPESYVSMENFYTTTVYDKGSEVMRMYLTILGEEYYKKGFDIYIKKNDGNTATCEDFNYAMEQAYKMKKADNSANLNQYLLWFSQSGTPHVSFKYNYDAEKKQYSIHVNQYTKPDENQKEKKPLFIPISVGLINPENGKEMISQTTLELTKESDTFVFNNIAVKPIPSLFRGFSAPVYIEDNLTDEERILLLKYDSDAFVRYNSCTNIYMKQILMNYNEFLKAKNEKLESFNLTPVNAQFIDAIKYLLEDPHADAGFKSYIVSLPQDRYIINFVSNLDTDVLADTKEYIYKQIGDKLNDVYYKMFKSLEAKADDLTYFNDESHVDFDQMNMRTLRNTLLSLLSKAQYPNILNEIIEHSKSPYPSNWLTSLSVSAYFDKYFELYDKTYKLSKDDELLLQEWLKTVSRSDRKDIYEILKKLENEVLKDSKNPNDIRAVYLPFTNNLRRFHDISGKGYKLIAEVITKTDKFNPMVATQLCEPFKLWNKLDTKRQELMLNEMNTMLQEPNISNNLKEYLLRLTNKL

[11] = target: T6, Tyrosine-protein phosphatase non-receptor type 7 (Homo sapiens, UniProt P35236); type: functional
T6 sequence (P35236 whole entry): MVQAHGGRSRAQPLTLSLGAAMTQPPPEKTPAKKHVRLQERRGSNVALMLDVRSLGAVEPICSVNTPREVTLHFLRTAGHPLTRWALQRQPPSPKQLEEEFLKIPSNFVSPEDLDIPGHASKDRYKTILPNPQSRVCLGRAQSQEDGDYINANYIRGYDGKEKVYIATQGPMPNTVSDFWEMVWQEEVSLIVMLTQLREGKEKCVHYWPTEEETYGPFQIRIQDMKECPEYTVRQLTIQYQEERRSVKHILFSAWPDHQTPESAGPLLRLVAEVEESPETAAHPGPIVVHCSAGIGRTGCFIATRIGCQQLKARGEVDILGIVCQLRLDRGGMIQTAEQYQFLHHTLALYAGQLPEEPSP

[12] = target: T7, Tyrosine-protein phosphatase non-receptor type 22 (Homo sapiens, UniProt Q9Y2R2); type: functional
T7 sequence (Q9Y2R2 whole entry): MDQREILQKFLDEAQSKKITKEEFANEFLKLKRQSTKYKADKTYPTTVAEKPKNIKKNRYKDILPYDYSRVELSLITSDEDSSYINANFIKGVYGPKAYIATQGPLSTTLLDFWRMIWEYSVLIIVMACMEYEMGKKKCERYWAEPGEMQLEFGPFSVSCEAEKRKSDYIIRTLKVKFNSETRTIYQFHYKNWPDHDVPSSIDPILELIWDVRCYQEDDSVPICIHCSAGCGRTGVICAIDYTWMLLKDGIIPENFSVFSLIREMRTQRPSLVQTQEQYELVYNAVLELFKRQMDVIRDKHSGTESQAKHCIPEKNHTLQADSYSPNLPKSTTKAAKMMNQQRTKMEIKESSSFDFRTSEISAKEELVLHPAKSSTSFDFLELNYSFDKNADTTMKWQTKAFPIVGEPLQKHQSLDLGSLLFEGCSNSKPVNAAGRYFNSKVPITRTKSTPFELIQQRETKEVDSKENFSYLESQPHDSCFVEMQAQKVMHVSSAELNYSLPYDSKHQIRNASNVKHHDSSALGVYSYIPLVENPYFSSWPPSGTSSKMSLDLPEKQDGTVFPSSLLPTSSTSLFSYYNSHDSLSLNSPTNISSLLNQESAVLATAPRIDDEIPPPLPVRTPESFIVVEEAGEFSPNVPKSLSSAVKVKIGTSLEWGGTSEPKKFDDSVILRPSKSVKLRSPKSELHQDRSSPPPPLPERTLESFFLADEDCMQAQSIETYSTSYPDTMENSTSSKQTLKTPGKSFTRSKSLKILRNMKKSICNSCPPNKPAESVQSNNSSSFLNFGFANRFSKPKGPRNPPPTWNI

[13] = target: T7, Tyrosine-protein phosphatase non-receptor type 22; type: functional; remark: listed apart in the source
[14] = target: T8, Kappa-type opioid receptor (Homo sapiens, UniProt P41145); test: SAR analysis of small molecule agonists of the kappa opioid receptor via a luminescent beta-arrestin assay - Set 2. [Related pubchem assays (depositor defined):AID1777, AID1785, AID1786, AID1966, AID2133, AID2136, AID2284, AID449737]; type: functional
[15] = target: T9, Mu-type opioid receptor (Homo sapiens, UniProt P35372); test: SAR Analysis of Antagonists of the MOR Receptor using an Image-Based Assay - Set 2. [Related pubchem assays (depositor defined):AID1777, AID1785, AID1786, AID1966, AID2133, AID2136, AID2284, AID2285, AID2420]; type: functional
[16] = target: T8, Kappa-type opioid receptor; test: SAR analysis of Agonists of the Kappa Opioid Receptor (KOR) using an Image-Based Assay - Set 2. [Related pubchem assays (depositor defined):AID1777, AID1786, AID1966, AID2133, AID2136, AID2284, AID2285, AID2359]; type: functional
[17] = target: T10, Delta-type opioid receptor (Homo sapiens, UniProt P41143); test: SAR Analysis of Antagonists of the DOR Receptor using an Image-Based Assay - Set 2. [Related pubchem assays (depositor defined):AID1777, AID1785, AID1786, AID1966, AID2133, AID2136, AID2284, AID2285, AID2357]; type: functional
[18] = target: T8, Kappa-type opioid receptor; test: SAR analysis of Antagonists of the Kappa Opioid Receptor (KOR) using an Image-Based Assay - Set 2. [Related pubchem assays (depositor defined):AID1777, AID1785, AID1786, AID1966, AID2133, AID2136, AID2284, AID2285, AID2348]; type: functional
[19] = target: T10, Delta-type opioid receptor; test: SAR Analysis of Agonists of the DOR Receptor using an Image-Based Assay - Set 2. [Related pubchem assays (depositor defined):AID1777, AID1785, AID1786, AID1966, AID2133, AID2136, AID2284, AID2285, AID2370]; type: functional
[20] = target: T9, Mu-type opioid receptor; test: SAR Analysis of Agonists of the MOR Receptor using an Image-Based Assay - Set 2. [Related pubchem assays (depositor defined):AID1777, AID1785, AID1786, AID1966, AID2133, AID2136, AID2284, AID2285, AID2352]; type: functional
[21] = target: T11, Voltage-gated N-type calcium channel alpha-1B subunit/Amyloid beta A4 precursor protein-binding family A member 1 (Homo sapiens, UniProt Q00975+Q02410); test: disruptors of Mint-PDZ/N-type channel peptide interaction – biochemical, HTRF, SAR follow-up (AID 2489); type: functional
[22] = target: SUMO E1/E2 (Homo sapiens, UniProt P63279+Q9UBE0+Q9UBT2); test: SAR analysis of SUMOylation using HTRF in an in-Vitro dose response assay. [Related pubchem assays (depositor defined):AID2006, AID2011, AID2018, AID2069, AID2658]; type: functional
[23] = target: T11, Voltage-gated N-type calcium channel alpha-1B subunit/Amyloid beta A4 precursor protein-binding family A member 1; test: disruptors of Mint-PDZ/N-type channel peptide interaction – biochemical, HTRF, set 2, SAR follow-up (AID 434980); type: functional

T8 sequence (P41145 whole entry): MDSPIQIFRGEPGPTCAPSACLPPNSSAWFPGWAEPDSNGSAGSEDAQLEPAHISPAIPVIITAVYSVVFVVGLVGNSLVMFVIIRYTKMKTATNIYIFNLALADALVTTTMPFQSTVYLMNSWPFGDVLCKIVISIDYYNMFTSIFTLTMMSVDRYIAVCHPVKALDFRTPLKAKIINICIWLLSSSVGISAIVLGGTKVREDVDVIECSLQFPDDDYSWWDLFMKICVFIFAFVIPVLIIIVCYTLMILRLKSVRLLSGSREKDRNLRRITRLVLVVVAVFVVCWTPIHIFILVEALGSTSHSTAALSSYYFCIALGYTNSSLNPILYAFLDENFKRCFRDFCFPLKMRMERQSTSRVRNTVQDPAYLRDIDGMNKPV
T2 sequence (P11940 whole entry): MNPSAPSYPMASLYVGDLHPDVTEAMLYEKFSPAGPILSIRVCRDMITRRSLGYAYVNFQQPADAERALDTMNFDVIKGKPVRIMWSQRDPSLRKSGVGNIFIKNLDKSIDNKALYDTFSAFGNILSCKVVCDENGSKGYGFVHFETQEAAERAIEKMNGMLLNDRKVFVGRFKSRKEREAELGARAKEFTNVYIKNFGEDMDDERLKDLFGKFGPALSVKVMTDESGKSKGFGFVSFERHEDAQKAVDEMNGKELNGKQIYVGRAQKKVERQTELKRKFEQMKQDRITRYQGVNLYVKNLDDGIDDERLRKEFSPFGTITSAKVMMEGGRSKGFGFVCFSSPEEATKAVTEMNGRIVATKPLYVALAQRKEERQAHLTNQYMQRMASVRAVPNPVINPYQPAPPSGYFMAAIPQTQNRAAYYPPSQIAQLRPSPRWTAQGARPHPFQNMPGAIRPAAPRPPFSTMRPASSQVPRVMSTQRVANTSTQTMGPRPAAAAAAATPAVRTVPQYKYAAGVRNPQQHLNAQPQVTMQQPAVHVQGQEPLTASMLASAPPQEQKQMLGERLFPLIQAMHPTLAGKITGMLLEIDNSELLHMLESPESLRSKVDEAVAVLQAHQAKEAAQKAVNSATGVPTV
T10 sequence (P41143 whole entry): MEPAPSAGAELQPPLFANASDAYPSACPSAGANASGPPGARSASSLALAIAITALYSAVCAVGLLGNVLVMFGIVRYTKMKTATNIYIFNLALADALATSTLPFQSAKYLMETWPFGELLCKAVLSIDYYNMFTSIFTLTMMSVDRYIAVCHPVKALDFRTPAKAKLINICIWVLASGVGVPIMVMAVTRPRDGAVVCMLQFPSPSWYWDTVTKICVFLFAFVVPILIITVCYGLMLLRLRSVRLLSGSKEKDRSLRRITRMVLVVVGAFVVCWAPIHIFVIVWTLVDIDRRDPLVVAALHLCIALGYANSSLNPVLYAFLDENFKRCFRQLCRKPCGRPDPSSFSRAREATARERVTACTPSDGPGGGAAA
T11 sequence (Q00975 whole entry): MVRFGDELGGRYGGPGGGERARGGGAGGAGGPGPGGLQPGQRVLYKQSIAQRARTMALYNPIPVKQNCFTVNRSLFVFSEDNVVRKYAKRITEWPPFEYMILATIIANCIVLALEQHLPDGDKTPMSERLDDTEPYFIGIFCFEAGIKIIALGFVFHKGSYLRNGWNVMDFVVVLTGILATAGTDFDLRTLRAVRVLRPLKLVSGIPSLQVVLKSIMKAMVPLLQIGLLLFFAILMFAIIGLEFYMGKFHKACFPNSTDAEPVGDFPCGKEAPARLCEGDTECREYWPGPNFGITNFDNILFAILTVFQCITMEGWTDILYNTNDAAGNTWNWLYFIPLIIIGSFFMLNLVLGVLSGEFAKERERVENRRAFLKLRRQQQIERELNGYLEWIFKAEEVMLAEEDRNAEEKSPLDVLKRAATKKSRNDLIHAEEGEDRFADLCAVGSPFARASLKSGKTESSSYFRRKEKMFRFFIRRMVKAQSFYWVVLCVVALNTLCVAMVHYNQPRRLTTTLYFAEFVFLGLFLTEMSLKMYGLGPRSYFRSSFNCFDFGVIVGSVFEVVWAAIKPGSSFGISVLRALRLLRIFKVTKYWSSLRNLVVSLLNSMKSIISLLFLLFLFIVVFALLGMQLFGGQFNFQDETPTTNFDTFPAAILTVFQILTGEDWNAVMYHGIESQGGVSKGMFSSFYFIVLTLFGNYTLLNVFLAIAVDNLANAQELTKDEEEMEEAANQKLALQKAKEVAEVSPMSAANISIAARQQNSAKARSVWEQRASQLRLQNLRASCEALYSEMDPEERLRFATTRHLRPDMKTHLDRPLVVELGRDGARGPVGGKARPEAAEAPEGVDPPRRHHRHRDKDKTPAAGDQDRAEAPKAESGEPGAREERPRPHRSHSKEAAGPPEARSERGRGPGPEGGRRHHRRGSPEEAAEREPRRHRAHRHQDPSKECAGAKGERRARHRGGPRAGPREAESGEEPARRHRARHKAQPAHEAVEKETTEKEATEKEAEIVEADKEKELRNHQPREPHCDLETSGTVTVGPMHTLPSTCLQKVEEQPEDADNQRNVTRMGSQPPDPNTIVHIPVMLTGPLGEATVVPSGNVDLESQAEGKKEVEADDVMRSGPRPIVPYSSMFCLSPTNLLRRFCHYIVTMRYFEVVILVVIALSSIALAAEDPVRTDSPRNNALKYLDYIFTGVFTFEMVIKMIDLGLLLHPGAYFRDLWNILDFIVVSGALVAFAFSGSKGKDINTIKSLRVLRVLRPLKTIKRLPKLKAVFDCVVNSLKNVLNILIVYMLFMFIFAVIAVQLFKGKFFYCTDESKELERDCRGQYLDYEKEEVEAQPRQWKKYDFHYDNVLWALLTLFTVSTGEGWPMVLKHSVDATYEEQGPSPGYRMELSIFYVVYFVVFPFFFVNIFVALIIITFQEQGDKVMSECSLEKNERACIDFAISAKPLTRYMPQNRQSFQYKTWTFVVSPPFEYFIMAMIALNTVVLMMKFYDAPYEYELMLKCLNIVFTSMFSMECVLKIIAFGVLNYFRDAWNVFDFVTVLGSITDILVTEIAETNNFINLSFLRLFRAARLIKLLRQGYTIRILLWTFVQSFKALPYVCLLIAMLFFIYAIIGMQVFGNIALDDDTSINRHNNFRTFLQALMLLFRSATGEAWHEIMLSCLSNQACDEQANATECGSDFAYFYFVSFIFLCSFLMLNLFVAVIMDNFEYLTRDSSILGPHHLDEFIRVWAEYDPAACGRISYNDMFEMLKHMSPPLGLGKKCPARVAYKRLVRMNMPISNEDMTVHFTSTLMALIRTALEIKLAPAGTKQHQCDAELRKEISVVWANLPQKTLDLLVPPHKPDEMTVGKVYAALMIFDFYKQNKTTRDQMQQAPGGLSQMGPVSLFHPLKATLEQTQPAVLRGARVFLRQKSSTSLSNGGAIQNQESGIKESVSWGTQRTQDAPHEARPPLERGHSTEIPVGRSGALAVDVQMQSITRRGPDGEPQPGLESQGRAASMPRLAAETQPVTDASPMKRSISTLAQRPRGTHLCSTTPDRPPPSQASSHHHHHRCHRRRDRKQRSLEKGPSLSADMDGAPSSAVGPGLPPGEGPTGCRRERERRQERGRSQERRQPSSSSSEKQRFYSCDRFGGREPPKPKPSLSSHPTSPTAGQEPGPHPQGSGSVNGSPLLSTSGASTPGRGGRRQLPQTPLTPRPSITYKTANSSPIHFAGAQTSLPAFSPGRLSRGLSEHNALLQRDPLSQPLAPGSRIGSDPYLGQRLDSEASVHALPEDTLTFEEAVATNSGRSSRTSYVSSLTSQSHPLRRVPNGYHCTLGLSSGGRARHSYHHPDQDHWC
T11 sequence (Q02410 whole entry): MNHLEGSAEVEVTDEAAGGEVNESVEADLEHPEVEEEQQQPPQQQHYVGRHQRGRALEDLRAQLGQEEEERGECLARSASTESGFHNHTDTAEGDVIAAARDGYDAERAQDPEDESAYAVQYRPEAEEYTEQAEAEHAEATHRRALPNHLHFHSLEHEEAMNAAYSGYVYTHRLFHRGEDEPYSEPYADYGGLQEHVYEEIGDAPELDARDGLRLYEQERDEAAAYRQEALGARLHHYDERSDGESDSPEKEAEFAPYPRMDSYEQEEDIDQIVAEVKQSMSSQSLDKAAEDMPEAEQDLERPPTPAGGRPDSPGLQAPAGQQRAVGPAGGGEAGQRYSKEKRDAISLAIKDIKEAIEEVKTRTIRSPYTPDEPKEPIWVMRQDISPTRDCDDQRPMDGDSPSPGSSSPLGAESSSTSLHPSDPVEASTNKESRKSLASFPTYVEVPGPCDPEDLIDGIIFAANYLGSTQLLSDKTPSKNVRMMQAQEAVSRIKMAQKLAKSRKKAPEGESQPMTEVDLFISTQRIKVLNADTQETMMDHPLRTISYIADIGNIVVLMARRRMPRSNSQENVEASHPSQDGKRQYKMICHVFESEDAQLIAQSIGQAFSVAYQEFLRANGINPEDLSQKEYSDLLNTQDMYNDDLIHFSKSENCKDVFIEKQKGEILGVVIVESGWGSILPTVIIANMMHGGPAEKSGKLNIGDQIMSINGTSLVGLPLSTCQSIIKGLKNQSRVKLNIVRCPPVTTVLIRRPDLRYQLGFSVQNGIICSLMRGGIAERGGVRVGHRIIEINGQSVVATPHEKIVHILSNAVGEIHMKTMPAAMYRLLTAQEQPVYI
T9 sequence (P35372 whole entry): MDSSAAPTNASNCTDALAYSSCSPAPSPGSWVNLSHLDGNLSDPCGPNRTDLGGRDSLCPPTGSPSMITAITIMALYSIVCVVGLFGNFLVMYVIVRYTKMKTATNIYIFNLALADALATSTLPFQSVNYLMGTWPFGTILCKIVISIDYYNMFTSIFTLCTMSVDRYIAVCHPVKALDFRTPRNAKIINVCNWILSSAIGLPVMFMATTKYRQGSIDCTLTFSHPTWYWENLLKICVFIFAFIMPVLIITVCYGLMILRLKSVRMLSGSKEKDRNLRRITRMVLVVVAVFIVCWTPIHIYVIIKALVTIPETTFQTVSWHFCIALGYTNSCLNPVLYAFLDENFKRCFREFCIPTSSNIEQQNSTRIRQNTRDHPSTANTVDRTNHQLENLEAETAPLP

## CCN1C(=O)/C(=C2\SC(=S)N(NC(=O)c3ccccc3O)C2=O)c2ccccc21
[1]
  EC50: 7.47 µM (active)
[2]
  IC50: > 66 µM (inactive)
[3]
  IC50: > 100 µM (inactive)
[4]
  IC50: > 59.6 µM (not active)
[5]
  EC50: 5.31 µM (active)
[6]
  IC50: > 100 µM (inactive)
[7]
  IC50: 25 µM (not active)
[8]
  IC50: > 66 µM (inactive)
[9]
  IC50: 53.5 µM (active)
[10]
  IC50: 9.43 µM (active)

## CSCC[C@H](NC(=O)Nc1cccc(C(F)(F)F)c1)C(=O)O
[11]
  IC50: > 79.4 µM (inactive)
[12]
  IC50: > 79.4 µM (inactive)
[13]
  IC50: > 79.4 µM (inactive)

## c1ccc(CSc2nnc(-c3ccccn3)n2Cc2ccco2)cc1
[14]
  EC50: 17.9 µM (inactive)
[15]
  IC50: > 32 µM (inactive)
[16]
  EC50: > 32 µM (inactive)
[17]
  IC50: > 32 µM (inactive)
[18]
  IC50: > 32 µM (inactive)
[19]
  EC50: > 32 µM (inactive)
[20]
  EC50: > 32 µM (inactive)

## COc1ccc(CCNC(=O)COC(=O)c2cc(-c3ccco3)nc3ccccc23)cc1
[21]
  IC50: 32.9 µM (active)
[22]
  IC50: 11.5 µM (active)
[23]
  IC50: 12.2 µM (active)
